Source: ChEMBL document CHEMBL1152896, “Design and in silico screening of combinatorial library of antimalarial analogs of triclosan inhibiting Plasmodium falciparum enoyl-acyl carrier protein reductase” (Eur J Med Chem, 2009)

Target: T1, Enoyl-acyl-carrier protein reductase (Plasmodium falciparum, UniProt Q965D5)
T1 sequence (Q965D5 whole entry): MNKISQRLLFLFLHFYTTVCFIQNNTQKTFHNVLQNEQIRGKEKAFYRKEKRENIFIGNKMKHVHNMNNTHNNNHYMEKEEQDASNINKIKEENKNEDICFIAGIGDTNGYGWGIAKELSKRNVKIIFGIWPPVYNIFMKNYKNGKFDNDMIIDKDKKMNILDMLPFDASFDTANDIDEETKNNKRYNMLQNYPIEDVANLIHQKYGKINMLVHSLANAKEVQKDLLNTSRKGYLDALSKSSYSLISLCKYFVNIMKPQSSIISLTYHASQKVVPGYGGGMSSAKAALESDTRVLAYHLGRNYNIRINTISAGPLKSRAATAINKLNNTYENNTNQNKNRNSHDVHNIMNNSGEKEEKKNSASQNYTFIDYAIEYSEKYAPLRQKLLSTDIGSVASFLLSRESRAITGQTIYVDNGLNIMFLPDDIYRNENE
Assay: Inhibition of Plasmodium falciparum enoyl-acyl carrier protein reductase expressed in Escherichia coli BL21(DE3) by spectrophotometry

## Oc1cc(Cl)ccc1Oc1ccc(Cl)cc1Cl [TRICLOSAN]
  Ki: 0.05 µM
